# Results from US4452793A, “29-Fluorophytosterol termiticides, compositions and methods of use therefor” (The Research Foundation of State University of New York, priority 1983, dated 1984).
# What was measured:
# Manduca sexta [1] = assay: Sterol distribution in experimental hornworms (capillary GC of gut-purged prepupae); type: in vivo, tobacco hornworm (Manduca sexta); conditions: fed at 50 ppm in diet; mean relative area % of GC, 4 hornworms, S.D. in parentheses
# Method: (§1) The recrystallized 29-fluorosterols are dissolved in dichloromethane and then coated onto the wheat germ to give a final concentration to 50 ppm (w/v) in the articifical diet. Controls receive either 50 ppm of stigmasterol or no additional sterols. The dose are varied in subsequent experiments. Twenty first instar tobacco hornworms larvae (Manduca sexta, seventh day after egg collection) are then placed on a 0.5-g slab of diet in a 1-oz dish; this is designated as Day 0 of feeding. Larvae were maintained at 65% relative humidity and 26° C. on a 17L/7D long day light regime. Diets are changed and larvae are weighed and staged daily. The mean survival, weight gain, and developmental periods of the experimental hornworms are shown relative to a group of twenty control larvae in FIG. 1.
# Four gut-purged prepupae from each experiment are frozen and later are analyzed individually for sterol composition. Each hornworm is homogenized (1:1 chloroform-methanol), the lipids is saponified, and the non-saponifiable lipis are chromatographed to give the sterol fraction. Analysis by capillary GC (Durabon DB-5 or DB-1701) allowed resolution an accurate quantification of cholesterol, desmosterol, campesterol, stiosterol and fucosterol from test insects. The results, present in Table 1, illustrate the insect metabolism.
# Manduca sexta [2] = assay: Insecticide bioassay of 29-fluorophytosterols in tobacco hornworm larvae (artificial diet); type: in vivo, tobacco hornworm (Manduca sexta); conditions: for LC50: Manduca sexta, po, 504 h, day 21, read-out: Dose for 50% reduction, survival (larvae, day 21) (LC50); for LC50 / Dose for 50% reduction, maximum larval weight (EC50) / Dose for 50% reduction, pupation (EC50): parts per million (w/v) in the final diet
# Method: as §1
# Inequality signs indicate that the effect indicated was beyond the range of doses tested and could not be reliably obtained by extrapolation of the log concentration vs. probit response plots. All values are reported as parts per million (w/v) in the final diet.
smiles,measurement,setting,value
CC(C)[C@@H](CCF)CC[C@@H](C)[C@H]1CC[C@H]2[C@@H]3CC=C4C[C@@H](O)CC[C@]4(C)[C@H]3CC[C@]12C [29-fluoroclionosterol],Relative percent sterol: campesterol,Manduca sexta [1],9.5(1) %
same,Relative percent sterol: cholesterol,Manduca sexta [1],82.5(2) %
same,Relative percent sterol: desmosterol,Manduca sexta [1],2.0(2) %
same,Relative percent sterol: sitosterol,Manduca sexta [1],5.9(1) %
CC(C)[C@H](CCF)CC[C@@H](C)[C@H]1CC[C@H]2[C@@H]3CC=C4C[C@@H](O)CC[C@]4(C)[C@H]3CC[C@]12C [29-fluorositosterol],LC50,Manduca sexta [2],300 µg/mL
same,"Dose for 50% reduction, maximum larval weight (EC50)",Manduca sexta [2],110 ppm
same,"Dose for 50% reduction, pupation (EC50)",Manduca sexta [2],150 ppm
same,Relative percent sterol: campesterol,Manduca sexta [1],7.8(3) %
same,Relative percent sterol: cholesterol,Manduca sexta [1],82.4(8) %
same,Relative percent sterol: desmosterol,Manduca sexta [1],5.2(8) %
same,Relative percent sterol: sitosterol,Manduca sexta [1],4.6(4) %
CC(C)[C@H](/C=C/[C@@H](C)[C@H]1CC[C@H]2[C@@H]3CC=C4C[C@@H](O)CC[C@]4(C)[C@H]3CC[C@]12C)CCF [29-fluoroporiferasterol],Relative percent sterol: campesterol,Manduca sexta [1],16.3(2) %
same,Relative percent sterol: cholesterol,Manduca sexta [1],65.6(8) %
same,Relative percent sterol: desmosterol,Manduca sexta [1],5.8(2) %
same,Relative percent sterol: sitosterol,Manduca sexta [1],12.3(5) %
CC(C)/C(=C/CF)CC[C@@H](C)[C@H]1CC[C@H]2[C@@H]3CC=C4C[C@@H](O)CC[C@]4(C)[C@H]3CC[C@]12C [29-fluorofucosterol],LC50,Manduca sexta [2],48 µg/mL
same,"Dose for 50% reduction, maximum larval weight (EC50)",Manduca sexta [2],26 ppm
same,"Dose for 50% reduction, pupation (EC50)",Manduca sexta [2],31 ppm
same,Relative percent sterol: campesterol,Manduca sexta [1],10.0(2) %
same,Relative percent sterol: cholesterol,Manduca sexta [1],82.2(2) %
same,Relative percent sterol: desmosterol,Manduca sexta [1],1.0(1) %
same,Relative percent sterol: sitosterol,Manduca sexta [1],5.8(2) %
CC(C)[C@@H](/C=C/[C@@H](C)[C@H]1CC[C@H]2[C@@H]3CC=C4C[C@@H](O)CC[C@]4(C)[C@H]3CC[C@]12C)CCF [29-fluorostigmasterol],LC50,Manduca sexta [2],4 µg/mL
same,Survivors present for analysis,Manduca sexta [2]; hornworms fed at 50 ppm,No survivors
same,"Dose for 50% reduction, maximum larval weight (EC50)",Manduca sexta [2],1 ppm
same,"Dose for 50% reduction, pupation (EC50)",Manduca sexta [2],1 ppm
